Experimental data taken from patent US10364277B2, “Diagnosis and treatment of autoimmune diseases” (NewSouth Innovations Pty Limited, priority 2013, dated 2019).
Entries after “also recorded” stand apart in the source; their conditions may differ. Marks after values point to notes of the source that are not given here. Ends that are not written are not given here.

How the values were obtained:
HLAB*2705 = HLAB*2705 (Homo sapiens, UniProt P01889, D138H/D201E/E176V/E204Q/G107R/H137Y/K202T/N104T/N87E/Q56L/Q94K/R106L/R155S/R180L/S101D/S121N/S48T/Y140D/Y33H/Y91C); experiment: REVEAL MHC-peptide binding assay; details: for % Positive Control: REVEAL binding score relative to positive control peptide, pass threshold ≥45%
[1] = tested on: T cells of patients with AS; details: known from Kuon et al. 1997; cited from earlier work
Lewis rats = experiment: Immunization of Lewis rats with peptide in CFA (uveitis/arthritis); assay type: in vivo, rat; set-up: histol Average / Arthritis Total: scale not given here; details: for Arthritis Total / Arthritis day 25 / incidence / histol Average: 50 μg peptide/animal; for clin uveitis: 6 Lewis rats, 50 μg peptide/animal s.c. in CFA; for incidence: eyes with histological findings / eyes scored; for animals immunised that developed arthritis: groups of 6 animals, not HLA-B27 transgenics; for histol Average: histological uveitis score of eyes
Description: Animals: Lewis rats, age 6 weeks,
Peptides were emulsified (sonification) in CFA (50:50, CFA:Peptid) supplemented with M Tuberculosis H37RA (BD, Heidelberg, Germany) to a final concentration of 2.5 mg/ml
Peptide is injected s.c. in both hindlegs, 50 μg peptide/200 μl emulsion, 100 μl/leg,
Group size: 6 animals, 3 groups
7 days post immunization animals were examined daily (eyes and feet)
Eyes were embedded in tissue tec and frozen at −80 degree.
8 μm cryo section were stained with hematoxilin and graded.

Rats = experiment: Induction of oral tolerance in rats; assay type: in vivo, rat; details: for affected joints / average score/animal / incidence: 4 rats
PBMC = experiment: Ex vivo IFN-γ EliSpot assay; details: for IFN-γ response to individual peptide compared to the controls: one HLA B27 subject of 2 (B27004, B27007), p<0.001
[2] = PBS-fed 3 x, immunized with 100 μg peptide
[3] = fed 200 μg peptide 3 x, immunized with 100 μg of the same peptide

Molecule: 8 (DRASFIKNL; Collagen peptide fragment) [Peptide 8]
- % Positive Control (HLAB*2705): 0.04%
- stimulation of T cells of patients with AS [1]: stimulate T cells of patients with AS

Molecule: 9 (SRHHAFCFR; Aggrecan peptide fragment) [Peptide 9]
- % Positive Control (HLAB*2705): 0.02%
- stimulation of T cells of patients with AS [1]: stimulate T cells of patients with AS

Molecule: 10 (ARGQPGVMG) [Peptide 10]
- % Positive Control (HLAB*2705): 1.06%

Molecule: ARKLLLDNL [Peptide P2]
- % Positive Control (HLAB*2705): 5.26%
- Arthritis Total (Lewis rats): 8
- clin uveitis (Lewis rats): 0
- Arthritis day 25 (Lewis rats): 8
- incidence (Lewis rats): 5/11*
- animals immunised that developed arthritis (Lewis rats): 5/6
- histol Average (Lewis rats): 0.181
- affected joints (Rats; [2]): 3
- average score/animal (Rats; [2]): 1.875
- incidence (Rats; [2]): 2/4
- average score/animal (Rats; [3]): 3.25
- incidence (Rats; [3]): 1/4
- histological score (Rats; left eye of rat 1-3, PBS-fed, imm. P2D6): 2-3

Molecule: KRFNALQYL [human lumican residues 226-234]
- % Positive Control (HLAB*2705): 0.24%
- binding relative to the positive control peptides (HLAB*2705; in vitro MHC-peptide binding assay, HLA-B2705): significant binding
- Arthritis Total (Lewis rats): 3
- clin uveitis (Lewis rats): 0
- Arthritis day 25 (Lewis rats): 0
- incidence (Lewis rats): 3/12
- histol Average (Lewis rats): 0.125

Molecule: KRLAETLAL [compound 1, KRLAETLAL]
- % Positive Control (HLAB*2705): 105.51%

Molecule: LQNNLIETI (Fragment of keratocan protein)
- IFN-γ response to individual peptide compared to the controls (PBMC): significant increase in response

Molecule: LQYLRLSHN
- IFN-γ response to individual peptide compared to the controls (PBMC): significant increase in response

Molecule: NRFSVAYML [Peptide P3]
- % Positive Control (HLAB*2705): 0.00%
- Arthritis Total (Lewis rats): 4
- clin uveitis (Lewis rats): 0
- Arthritis day 25 (Lewis rats): 2
- incidence (Lewis rats): 2/12
- histol Average (Lewis rats): 0.083
- affected joints (Rats; [2]): 10
- average score/animal (Rats; [2]): 2.75-3.00
- incidence (Rats; [2]): 3/4
- induction of oral tolerance (Rats; compared with P2): induces oral tolerance more effectively than P2
- affected joints (Rats; [3]): 0
- average score/animal (Rats; [3]): 0
- incidence (Rats; [3]): 0/4
- development of arthritis or uveitis (Rats; rats fed with P3 and immunized with P3): None of the rats fed with P3 and immunized with P3 developed arthritis or uveitis; also recorded: None of the animals who received P3 had evidence of arthritis or uveitis

Molecule: QLEDIRLDG (A second opticin protein fragment)
- IFN-γ response to individual peptide compared to the controls (PBMC): significant increase in response

B1: Lumican: whole recombinant human lumican (protein, UniProt P51884 19-338, looked up)
Lumican: QYYDYDFPLSIYGQSSPNCAPECNCPESYPSAMYCDELKLKSVPMVPPGIKYLYLRNNQIDHIDEKAFENVTDLQWLILDHNLLENSKIKGRVFSKLKQLKKLHINHNNLTESVGPLPKSLEDLQLTHNKITKLGSFEGLVNLTFIHLQHNRLKEDAVSAAFKGLKSLEYLDLSFNQIARLPSGLPVSLLTLYLDNNKISNIPDEYFKRFNALQYLRLSHNELADSGIPGNSFNVSSLVELDLSYNKLKNIPTVNENLENYYLEVNQLEKFDIKSFCKILGPLSYSKIKHLRLDGNRISETSLPPDMYECLRVANEVTLN
- animals immunised that developed arthritis (Lewis rats): all developed arthritis
- patients demonstrating increased IFN-γ production (PBMC; HLA B27 AU patients): 8 of 10
- Interferon gamma response, Patients (N = 10) (PBMC; number of HLA B27 AU patients responding, PBMC, 24 hours): 8
- Interferon gamma response, Controls (N-6) (PBMC; number of healthy controls responding, PBMC, 24 hours): 2
- IFN-γ response of HLA B27 AU patients vs average of healthy controls (PBMC; ten patients vs controls n=6, one way ANOVA, Bonferroni, lumican 2.5 μg/mL): significant difference
